US9078871B2, “Estrogen receptor modulators and uses thereof” (SERAGON PHARMACEUTICALS, INC., priority 2010, dated 2015)

Tests used:
Format in all cases: cell-based
ER-α [1] = molecular target: T1, ER-α (Homo sapiens, UniProt P03372); assay: ER-α in Cell Western Assay (SP1); conditions: MCF-7 cells, SP1 rabbit monoclonal Ab, 4 or 24 hr post compound addition, read-out: ER In-Cell Western Assay (SP1); for Emax: MCF7, Max Response; for DC50: IC50
T1 construct: endogenous in cells; host or cells: MCF-7
T1 sequence (P03372 1-595): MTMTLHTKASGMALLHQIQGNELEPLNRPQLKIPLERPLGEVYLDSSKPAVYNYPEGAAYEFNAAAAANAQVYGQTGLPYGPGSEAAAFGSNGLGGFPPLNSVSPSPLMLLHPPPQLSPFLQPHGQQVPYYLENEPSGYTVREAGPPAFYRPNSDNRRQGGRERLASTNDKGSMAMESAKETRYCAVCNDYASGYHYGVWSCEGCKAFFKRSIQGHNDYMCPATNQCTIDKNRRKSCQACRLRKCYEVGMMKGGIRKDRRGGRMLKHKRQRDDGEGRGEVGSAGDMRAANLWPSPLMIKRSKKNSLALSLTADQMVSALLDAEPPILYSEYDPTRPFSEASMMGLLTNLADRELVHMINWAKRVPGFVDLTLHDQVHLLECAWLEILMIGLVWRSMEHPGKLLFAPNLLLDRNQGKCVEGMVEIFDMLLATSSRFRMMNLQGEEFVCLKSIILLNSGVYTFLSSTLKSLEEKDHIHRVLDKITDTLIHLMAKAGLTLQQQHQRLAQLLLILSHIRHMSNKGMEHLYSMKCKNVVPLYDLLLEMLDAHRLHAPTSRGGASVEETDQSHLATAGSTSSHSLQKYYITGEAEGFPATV
How it was run: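 MCF-7 cells in charcoal-stripped FBS medium treated with 11-point semilog dilutions (0.3–0.000003 μM final) for 4 or 24 hr, then fixed and immunostained with SP1 anti-ER antibody. ER signal (800 nm) normalized to DRAQ5 DNA signal (700 nm) and expressed as % of untreated cells.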

MCF-7 cells = assay: Breast Cancer Cell Viability Assay (MCF7 Viability Assay); conditions: 5 days' compound exposure, CellTiter-Glo; for IC50: Homo sapiens, MCF7, 120 h
How it was run: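 MCF-7 cells, 320 per well in RPMI with 10% FBS and 20 mM HEPES, adhered overnight, then exposed 5 days to an eleven-point semilog dilution (final 0.3–0.000003 μM). CellTiter-Glo luminescence; % viability relative to untreated cells after subtracting cell-free background.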

ER-α [2] = molecular target: T1, ER-α; assay: ER-α In Cell Western Assay (ER1D5); conditions: MCF-7 cells, ER1D5 antibody, 4 or 24 hr post compound addition, read-out: ER In-Cell Western Assay (ER1D5); for Emax: MCF7, Max Response; for DC50: IC50
Experimental: MCF-7 cells were adjusted to a concentration of 200,000 cells per mL in RPMI containing 10% charcoal-stripped FBS and 20 mM HEPES. 16 microliters of the cell suspension (3200 cells) was added to each well of a poly-D-lysine 384 well plate, and the cells were incubated overnight to allow the cells to adhere. The following day an eleven point, serial semilog dilution of each compound was added to the cells in 16 μL at a final concentration ranging from 0.3-0.000003 μM. At 4 or 24 hr post compound addition, the cells were fixed (10% formalin in PBS) for 20 minutes. Cells were permeabalized in PBS 0.1% Triton and blocked with LICOR blocking buffer (50 μl/well, 90′). The wells were then incubated overnight at 4° C. with ER1D5 (Santa Cruz Biotechnology) diluted 1:100 in LICOR blocking buffer/0.1% Tween-20. Wells which were treated with blocking buffer with Tween but no antibody were used as a background control. Wells were washed with 0.1% Tween-20/PBS and then incubated in goat anti-mouse IRDye™ 800CW (LICOR Inc.; 1:1000) and DRAQ5 DNA dye (1:2000 for 2 mM stock) diluted in LICOR blocking buffer containing 0.1% Tween-20 and 0.01% SDS for 60 minutes. Cells were washed (50 μl/well, 5′ each) in 0.1% Tween-20/PBS. Plates were scanned on a LICOR Odyssey infrared imaging system. Integrated intensities in the 800 nm channel and 700 nm channel were measured to determine levels of ER and DNA respectively. Percent ER levels were determined as follows: (Integrated intensity 800 nm sample/integrated intensity 700 nm sample)/(Integrated intensity 800 nm untreated cells/integrated intensity 700 nm untreated cells)×100=% ER levels.

| Compound | Emax (ER-α [1]) | DC50 (ER-α [1]) | IC50 (MCF-7 cells) | Emax (ER-α [2]) | DC50 (ER-α [2]) | MCF7 Viability Assay Max Response (MCF-7 cells) |
| --- | --- | --- | --- | --- | --- | --- |
| CC1=C(c2cccc(O)c2)C(c2ccc(N(C)CCO)cc2)Oc2ccc(O)cc21 (stereo not drawn) [Example 4, 2-(4-((2-Hydroxyethyl)(methyl)amino)phenyl)-3-(3-hydroxyphenyl)-4-methyl-2H-chromen-6-ol] | < 60% | > 1 nM | > 1 nM | < 40% | > 1 nM | + (+ = a single % value <50%) |
| CC1=C(c2cccc(O)c2)C(c2ccc(OC[C@H](C)N3CC[C@@H](C)C3)cc2F)Oc2ccc(O)cc21 (stereo partly drawn) [Example 35, 2-(2-Fluoro-4-((S)-2-((R)-3-methylpyrrolidin-1-yl)propoxy)phenyl)-3-(3-hydroxyphenyl)-4-methyl-2H-chromen-6-ol] | ≥ 85% | ≤ 1 nM | ≤ 1 nM | ≥ 65% | ≤ 1 nM | ++ (++ = a single % value ≧50%) |
| CC1=C(c2cccc(O)c2)C(c2ccc(OCCN3CCC3)cc2)Oc2ccc(O)cc21 (stereo not drawn) [Example 38, 2-(4-(2-(Azetidin-1-yl)ethoxy)phenyl)-3-(3-hydroxyphenyl)-4-methyl-2H-chromen-6-ol] | 60 to 85% | ≤ 1 nM | ≤ 1 nM | 40 to 65% | ≤ 1 nM | ++ (++ = a single % value ≧50%) |
| CC1=C(c2cccc(O)c2)C(c2ccc(OCCN3CCC(C)(C)C3)cc2)Oc2ccc(O)cc21 (stereo not drawn) [Example 19, 2-(4-(2-(3,3-Dimethylpyrrolidin-1-yl)ethoxy)phenyl)-3-(3-hydroxyphenyl)-4-methyl-2H-chromen-6-ol] | 60 to 85% | ≤ 1 nM | ≤ 1 nM | ≥ 65% | ≤ 1 nM | ++ (++ = a single % value ≧50%) |
| CC1=C(c2ccc(F)c(O)c2)C(c2ccc(OC[C@H](C)N3CC[C@@H](C)C3)cc2)Oc2ccc(O)cc21 (stereo partly drawn) [Example 57, 3-(4-Fluoro-3-hydroxyphenyl)-4-methyl-2-(4-((S)-2-((R)-3-methylpyrrolidin-1-yl)propoxy)phenyl)-2H-chromen-6-ol] | ≥ 85% | ≤ 1 nM | ≤ 1 nM | ≥ 65% | ≤ 1 nM | ++ (++ = a single % value ≧50%) |
| CC1=C(c2cccc(O)c2)C(c2ccc(OC[C@@H](C)N3CC[C@@H](C)C3)cc2)Oc2ccc(O)cc21 (stereo partly drawn) [Example 10, 3-(3-Hydroxyphenyl)-4-methyl-2-(4-((R)-2-((R)-3-methylpyrrolidin-1-yl)propoxy)phenyl)-2H-chromen-6-ol] | 60 to 85% | ≤ 1 nM | ≤ 1 nM | < 40% | ≤ 1 nM | + (+ = a single % value <50%) |
| CC1=C(c2cccc(O)c2)C(c2ccc(NCCN3CCCC3)cc2)Oc2ccc(O)cc21 (stereo not drawn) [Example 22, 3-(3-Hydroxyphenyl)-4-methyl-2-(4-((2-(pyrrolidin-1-yl)ethyl)amino)phenyl)-2H-chromen-6-ol] | 60 to 85% | ≤ 1 nM | ≤ 1 nM | 40 to 65% | > 1 nM | + (+ = a single % value <50%) |

Continued, in another order:

| Emax (ER-α [1]) | DC50 (ER-α [1]) | IC50 (MCF-7 cells) | Emax (ER-α [2]) | DC50 (ER-α [2]) | Compound | MCF7 Viability Assay Max Response (MCF-7 cells) |
| --- | --- | --- | --- | --- | --- | --- |
| 60 to 85% | ≤ 1 nM | ≤ 1 nM | 40 to 65% | ≤ 1 nM | CC1=C(c2cccc(O)c2)C(c2ccc(OCCN3CCCCCC3)cc2)Oc2ccc(O)cc21 (stereo not drawn) [Example 17, 2-(4-(2-(Azepan-1-yl)ethoxy)phenyl)-3-(3-hydroxyphenyl)-4-methyl-2H-chromen-6-ol] | + (+ = a single % value <50%) |
| 60 to 85% | ≤ 1 nM | > 1 nM | ≥ 65% | > 1 nM | C#Cc1ccc(C2=C(C)c3cc(O)ccc3OC2c2ccc(OC[C@H](C)N3CC[C@@H](C)C3)cc2)cc1 (stereo partly drawn) [Example 58, 3-(4-Ethynylphenyl)-4-methyl-2-(4-((S)-2-((R)-3-methylpyrrolidin-1-yl)propoxy)phenyl)-2H-chromen-6-ol] | ++ (++ = a single % value ≧50%) |
| ≥ 85% | ≤ 1 nM | ≤ 1 nM | ≥ 65% | ≤ 1 nM | CC1=C(c2cccc(O)c2)C(c2ccc(OC[C@H](C)N3CCC[C@H]3C)cc2)Oc2ccc(O)cc21 (stereo partly drawn) [Example 23, 3-(3-Hydroxyphenyl)-4-methyl-2-(4-((S)-2-((R)-2-methylpyrrolidin-1-yl)propoxy)phenyl)-2H-chromen-6-ol] | ++ (++ = a single % value ≧50%) |
| 60 to 85% | ≤ 1 nM | ≤ 1 nM | ≥ 65% | ≤ 1 nM | CC1=C(c2cccc(O)c2)C(c2ccc(OC[C@H](C)N3CCC(C)(C)C3)cc2)Oc2ccc(O)cc21 (stereo partly drawn) [Example 18, 2-(4-((S)-2-(3,3-Dimethylpyrrolidin-1-yl)propoxy)phenyl)-3-(3-hydroxyphenyl)-4-methyl-2H-chromen-6-ol] | ++ (++ = a single % value ≧50%) |
| 60 to 85% | ≤ 1 nM | ≤ 1 nM | 40 to 65% | ≤ 1 nM | CC1=C(c2cccc(O)c2)C(c2ccc(OCCN3CCC[C@@H](C)C3)cc2)Oc2ccc(O)cc21 (stereo partly drawn) [Example 53, 3-(3-Hydroxyphenyl)-4-methyl-2-(4-(2-((R)-3-methylpiperidin-1-yl)ethoxy)phenyl)-2H-chromen-6-ol] | ++ (++ = a single % value ≧50%) |
| < 60% | ≤ 1 nM | ≤ 1 nM | < 40% | ≤ 1 nM | CC1=C(c2cccc(O)c2)C(c2ccc(OCCN3CCCCCCC3)cc2)Oc2ccc(O)cc21 (stereo not drawn) [Example 25, 2-(4-(2-(Azocan-1-yl)ethoxy)phenyl)-3-(3-hydroxyphenyl)-4-methyl-2H-chromen-6-ol] | + (+ = a single % value <50%) |
| < 60% | ≤ 1 nM | ≤ 1 nM | < 40% | > 1 nM | CC1=C(c2cccc(O)c2)C(c2ccc(OCCn3ccnc3)cc2)Oc2ccc(O)cc21 (stereo not drawn) [Example 16] | + (+ = a single % value <50%) |
| 60 to 85% | ≤ 1 nM | ≤ 1 nM | ≥ 65% | ≤ 1 nM | CC1=C(c2ccccc2C)C(c2ccc(OC[C@H](C)N3CC[C@@H](C)C3)cc2)Oc2ccc(O)cc21 (stereo partly drawn) [Example 56, 4-Methyl-2-(4-((S)-2-((R)-3-methylpyrrolidin-1-yl)propoxy)phenyl)-3-(o-tolyl)-2H-chromen-6-ol] | ++ (++ = a single % value ≧50%) |
| 60 to 85% | ≤ 1 nM | ≤ 1 nM | 40 to 65% | ≤ 1 nM | CC1=C(c2cccc(O)c2)C(c2ccc(OCCn3cccc3)cc2)Oc2ccc(O)cc21 (stereo not drawn) [Example 14, 3-(3-Hydroxyphenyl)-4-methyl-2-(4-(2-pyrrolylethoxy)phenyl)-2H-chromen-6-ol] | + (+ = a single % value <50%) |
